Experimental data: ChEMBL document CHEMBL1201862, “PubChem BioAssay data set” (2004)
Activity calls are given as the source filed them.

Assays:
H9c2 = assay: cells; format: functional, cell-based; conditions: Rattus norvegicus, H9c2, Myocardium;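 further: confirmatory concentration-response retest of ultra-high-throughput screening hits for modulation of myocardial damage; cell death induced by hydrogen peroxide oxidative stress; compound pretreatment for 60 min then peroxide exposure for 2 h; potency is for protecting the cells against peroxide damage rather than for killing them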
[1] = NIH3T3 cell viability loss – ATP luminescence, mouse fibroblasts, counter-screen, dose response (AID 2010); format: functional, cell-based;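 further: cells exposed to compound for about 90 hours before reading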
[2] = Trypanosoma cruzi growth suppression in host cells – NIH3T3 host cells, beta-gal luminescence, confirmation (AID 2044); format: functional, cell-based;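 further: intracellular parasites grown in NIH/3T3 mouse fibroblasts as host cells; luminescent beta-galactosidase reporter signal from transgenic T. cruzi replicating inside host cells; inhibitors lower the luminescence signal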
[3] = molecular target: T1, Ubiquitin-conjugating enzyme E2 N (Homo sapiens, UniProt P61088); format: functional;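 further: Dose-response confirmation in a TR-FRET assay detecting UBC13-driven polyubiquitin chain formation, inhibition measured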
T1 sequence (P61088 whole entry): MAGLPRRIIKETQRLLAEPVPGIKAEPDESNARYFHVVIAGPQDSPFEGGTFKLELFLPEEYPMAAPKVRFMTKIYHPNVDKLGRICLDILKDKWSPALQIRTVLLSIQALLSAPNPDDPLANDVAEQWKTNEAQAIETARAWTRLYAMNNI

cells [4] = format: functional
[5] = Vero E6 cell cytotoxicity, dose response, cytotoxicity control for non-replicating M. tuberculosis project, secondary assay (AID 492998); format: functional, VeroE6; conditions: Vero C1008
[6] = THP-1 cell cytotoxicity, dose response, cytotoxicity control for non-replicating M. tuberculosis project (AID 489025); format: functional
[7] = molecular target: Heat shock protein HSP 90-alpha (Homo sapiens, UniProt P07900); format: functional, organism-based
[8] = molecular target: FAD-linked sulfhydryl oxidase ALR (Homo sapiens, UniProt P55789); assay: ALR-catalysed DTT oxidation blockers – biochemical, H2O2 detection, luminescence, cherry-pick, dose response (AID 493248)
[9] = molecular target: T2, Corticotropin-releasing factor receptor 2/Corticotropin-releasing factor-binding protein (Homo sapiens, UniProt P24387+Q13324); assay: activators of CRF receptor 2 with binding protein – uHTS hits, confirmation (AID 602473); format: functional; conditions: read-out: EC50_Mean
T2 sequence (Q13324 whole entry): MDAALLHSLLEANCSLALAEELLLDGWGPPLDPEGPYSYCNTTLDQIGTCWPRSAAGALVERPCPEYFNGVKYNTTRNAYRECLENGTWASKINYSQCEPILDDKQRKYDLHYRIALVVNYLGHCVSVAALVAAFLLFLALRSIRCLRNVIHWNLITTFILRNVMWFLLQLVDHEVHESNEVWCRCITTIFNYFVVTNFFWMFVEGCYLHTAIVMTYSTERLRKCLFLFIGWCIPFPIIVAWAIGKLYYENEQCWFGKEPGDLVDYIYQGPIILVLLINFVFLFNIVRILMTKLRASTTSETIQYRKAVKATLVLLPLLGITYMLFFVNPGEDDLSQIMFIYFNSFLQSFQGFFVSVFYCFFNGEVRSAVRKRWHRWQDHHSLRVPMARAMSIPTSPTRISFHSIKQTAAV
T2 sequence (P24387 whole entry): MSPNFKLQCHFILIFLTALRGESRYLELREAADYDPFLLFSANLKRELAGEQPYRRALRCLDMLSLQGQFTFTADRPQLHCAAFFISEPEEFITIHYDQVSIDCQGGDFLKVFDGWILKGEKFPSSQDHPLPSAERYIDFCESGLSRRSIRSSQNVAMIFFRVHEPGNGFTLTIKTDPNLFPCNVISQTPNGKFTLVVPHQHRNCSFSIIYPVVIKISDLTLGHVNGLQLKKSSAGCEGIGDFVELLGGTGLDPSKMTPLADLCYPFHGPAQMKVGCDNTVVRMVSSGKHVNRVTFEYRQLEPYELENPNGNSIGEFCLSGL

[10] = molecular target: T2, Corticotropin-releasing factor receptor 2/Corticotropin-releasing factor-binding protein; assay: Dose Response confirmation of uHTS hits for small molecule antagonists of the CRF-binding protein and CRF-R2 receptor complex.; format: functional; conditions: read-out: IC50_Mean
cells [11] = format: functional, cell-based
cells [12] = format: functional, cell-based; remark: listed apart in the source
Streptococcus = assay: GAS UMAA2166 growth inhibition – luminescence, BacTiterGlo, counter-screen for streptokinase expression inhibitor project, dose response (AID 1915); format: functional, organism-based;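 further: potency for reduction of bacterial viability or growth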
[13] = alpha-synuclein stem-loop luciferase translation blockers – H4 neuroglioma cells, luminescence, confirmation (AID 1988); format: functional, cell-based
Streptokinase A = molecular target: T3, Streptokinase A (Streptococcus pyogenes serotype M1, UniProt P10520); assay: viability-normalized secreted streptokinase activity reduction – plasminogen activation absorbance, OD405, dose response (AID 1914); format: functional, Streptococcus pyogenes M1 GAS;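 further: secreted streptokinase activity via plasminogen activation per viability signal from cell pellet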
T3 sequence (P10520 whole entry): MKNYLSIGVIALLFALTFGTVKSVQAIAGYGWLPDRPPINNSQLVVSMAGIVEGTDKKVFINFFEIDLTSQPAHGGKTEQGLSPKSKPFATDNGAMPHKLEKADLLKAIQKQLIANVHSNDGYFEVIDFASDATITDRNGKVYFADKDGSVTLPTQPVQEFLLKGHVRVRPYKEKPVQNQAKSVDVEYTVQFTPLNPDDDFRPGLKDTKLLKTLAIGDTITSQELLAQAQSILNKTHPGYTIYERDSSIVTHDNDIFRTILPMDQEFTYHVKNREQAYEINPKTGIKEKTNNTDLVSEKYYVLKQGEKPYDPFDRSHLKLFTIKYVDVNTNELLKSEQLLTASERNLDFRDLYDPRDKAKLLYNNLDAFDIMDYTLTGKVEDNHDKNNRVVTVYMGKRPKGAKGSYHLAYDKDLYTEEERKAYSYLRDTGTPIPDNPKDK

[14] = Luminescence Cell-Based Dose Response HTS to Identify Inhibitors of 5'UTR Stem-Loop Driven Prion Protein mRNA Translation in H4 Neuroglioblastoma Cells. [Related pubchem assays: 1827 (Project Summary), 1813 (Primary HTS)]; format: functional
[15] = luciferase reporter signal suppression in cells – H4 neuroglioma cells, luminescence, dose response (AID 1990); format: functional, cell-based
[16] = tested on: Streptococcus sp. 'group A'; assay: Streptococcus pyogenes SK(-)GAS viability under kanamycin – luminescence, BacTiterGlo, confirmation, counter-screen for streptokinase expression inhibitor project, dose response (AID 1900); format: functional, organism-based
[17] = molecular target: T4, Heat shock factor protein 1 (Mus musculus, UniProt P38532); assay: enhancement of HSF1-driven luciferase signal – cell-based, NIH3T3, luminescence, dose retest, confirmation (AID 435004); format: functional;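 further: stress induced by proteasome inhibitor MG132 added 30 min after compound; luciferase reporter driven by HSF1 response element in NIH3T3 cells; actives raise luminescence as potentiators of the MG132 stress response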
T4 sequence (P38532 whole entry): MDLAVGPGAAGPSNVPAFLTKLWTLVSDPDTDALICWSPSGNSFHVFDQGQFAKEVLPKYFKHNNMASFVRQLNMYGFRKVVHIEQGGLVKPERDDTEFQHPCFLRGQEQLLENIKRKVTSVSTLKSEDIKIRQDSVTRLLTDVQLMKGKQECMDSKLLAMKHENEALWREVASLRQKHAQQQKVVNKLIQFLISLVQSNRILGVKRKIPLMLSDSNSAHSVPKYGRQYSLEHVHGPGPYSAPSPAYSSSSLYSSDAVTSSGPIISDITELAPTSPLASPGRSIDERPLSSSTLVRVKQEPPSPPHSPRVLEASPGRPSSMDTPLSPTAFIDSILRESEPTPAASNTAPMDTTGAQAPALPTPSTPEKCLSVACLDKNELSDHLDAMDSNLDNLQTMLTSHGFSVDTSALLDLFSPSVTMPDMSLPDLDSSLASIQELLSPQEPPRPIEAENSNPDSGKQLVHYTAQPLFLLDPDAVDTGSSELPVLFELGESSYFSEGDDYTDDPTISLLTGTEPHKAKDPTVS

[18] = NIH-3T3 fibroblast cytotoxicity, dose response, cytotoxicity control, cell-based, fluorescence, Alamar Blue, secondary assay (AID 2327); format: functional;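 further: NIH-3T3 mouse fibroblasts cultured with fluconazole at 8 µg/mL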
[19] = fluconazole-exposed Candida albicans growth modulators – fluorescence, retest, confirmation (AID 2467); format: functional, cell-based

Sequence of FAD-linked sulfhydryl oxidase ALR (P55789 whole entry): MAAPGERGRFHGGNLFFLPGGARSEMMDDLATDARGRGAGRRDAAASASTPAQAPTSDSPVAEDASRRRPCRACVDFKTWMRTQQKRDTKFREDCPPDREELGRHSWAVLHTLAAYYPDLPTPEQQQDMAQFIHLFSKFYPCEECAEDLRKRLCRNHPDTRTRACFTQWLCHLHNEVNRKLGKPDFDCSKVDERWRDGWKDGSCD

O=C(CSc1nnc(-c2cccnc2)o1)c1cc2ccccc2oc1=O
IC50 (H9c2): > 79 µM (inactive)

O=C(O)c1nn(CCOc2ccccc2F)c(=O)c2ccccc12
IC50 (H9c2): > 79 µM (inactive)

COc1ccc2sc(N(CCCN(C)C)C(=O)c3ccc(S(=O)(=O)N(C)Cc4ccccc4)cc3)nc2c1
EC50 [1]: > 60 µM (not active)
EC50 [2]: 0.185 µM (active)
IC50 [3]: > 20 µM (inactive)

CCCN1Cc2cccc(C(N)=O)c2C1=O
IC50 (H9c2): > 79 µM (inactive)

CN(C)CCNc1ccc(-c2nnc(O)c3ccccc23)cc1[N+](=O)[O-]
IC50 (H9c2): > 79 µM (inactive)

O=C(NC1CCCCC1)c1nc(O)c2nnn(Cc3ccccc3Cl)c2n1
IC50 (cells [4]): 29.9 µM (active)
CC50 [5]: 19.9 µM (active)
CC50 [6]: > 40 µM (active)

O=C(NC(O)C(=O)c1cccs1)c1cccnc1 (stereo not drawn)
IC50 (H9c2): > 79 µM (inactive)

O=C1NC(=O)N(Cc2ccccc2Cl)C(=O)/C1=C/c1ccc[nH]1
IC50 (cells [4]): 1.04 µM (active)
CC50 [5]: 9.48 µM (active)
CC50 [6]: 9.35 µM (active)

O=S(=O)(NC1CC2CCC1C2)c1ccc(Br)cc1 (stereo not drawn)
AC50 [7]: 1.6 µM (active)

O=C(Cn1[nH]c(=O)c2ccccc2c1=O)OCC(=O)N(Cc1ccccc1)Cc1ccccc1
IC50 (H9c2): 36 µM (inactive)

CCn1c(S)nnc1CCn1c2ccccc2c2ccccc21
AC50 [8]: > 100 µM (inactive)

COc1cccc(CNc2nc(-c3cccnc3)nc3ccccc23)c1
IC50 [3]: > 20 µM (inactive)
EC50 [9]: > 53 µM (inactive)
IC50 [10]: > 47.1 µM (inactive)

Cc1cc(NC(=O)CCN2C(=O)/C(=C\c3ccccc3)SC2=S)no1
EC50 (cells [11]): > 350 µM (not active)
EC50 (cells [12]): > 350 µM (not active)

Cc1ccc(NC2CCCN(C(=O)CCc3ccncc3)C2)cc1C (stereo not drawn)
EC50 [1]: > 60 µM (not active)
AC50 [8]: 2.7 µM (active)
EC50 [2]: 1.15 µM (active)

CCOC(=O)c1cc2c(ccn2C)n1CC(=O)N1CCN(c2ccccc2)CC1
EC50 (cells [11]): > 350 µM (not active)
EC50 (cells [12]): > 350 µM (not active)

COc1cccc(N2CCN(CC(=O)NCc3ccccc3)CC2)c1
AC50 [8]: 1.97 µM (active)

O=C(NCCCN1CCOCC1)c1cc(-c2cccs2)on1
EC50 (cells [11]): > 350 µM (not active)
EC50 (cells [12]): 77 µM (active)

COc1cc(OC)c(-c2nn3c(-c4ccco4)nnc3s2)cc1OC
IC50 (H9c2): > 79 µM (inactive)

CCN(CC)c1ccc(CNCc2cccs2)cc1
AC50 [8]: 0.742 µM (active)

O=C(COc1ccc([N+](=O)[O-])cc1)Nc1nc(-c2ccccn2)cs1
EC50 [1]: 8.46 µM (active)
EC50 (Streptococcus): 13.8 µM (active)
IC50 (H9c2): 11.8 µM (active)
EC50 [13]: > 120 µM (not active)
EC50 [2]: 1.79 µM (active)
EC50 (Streptokinase A): > 150 µM (not active)
EC50 [14]: 11.8 µM (active)
EC50 [15]: > 120 µM (not active)
EC50 [16]: 5.56 µM (active)

C=C(C)Cn1c(CCNC(=O)C(C)C)nc2ccccc21
EC50 (cells [11]): > 350 µM (not active)
EC50 (cells [12]): > 350 µM (not active)

CCCCc1c(C)nc(N)nc1O
EC50 (cells [11]): > 350 µM (not active)
EC50 (cells [12]): > 350 µM (not active)

C[C@H](CO)N1C[C@H](C)[C@@H](CN(C)S(=O)(=O)c2ccccc2)Oc2ccc(NC(=O)Nc3ccccc3)cc2C1=O
IC50 (H9c2): 13.3 µM (active)

O=C1N[C@H]2CC=C[C@H]2Nc2ccccc21
IC50 (H9c2): 44.8 µM (inactive)

O=C1OC(c2ccccc2)(c2ccc3cc(O)ccc3c2)c2ccccc21 (stereo not drawn)
AC50 [7]: 8.23 µM (active)

CSc1ccccc1OCc1cc(C(=O)N2CCN(C)C(c3ccccc3)C2)no1 (stereo not drawn)
AC50 [7]: 1.64 µM (active)

COc1ccc(N2C(=O)CSC2c2ccncc2)cc1 (stereo not drawn)
EC50 [17]: > 260 µM (inactive)
AC50 [8]: 0.124 µM (active)

CC(=O)Nc1cccc(-c2cc(NC(C)=O)c3ncc(-c4ccccc4)n3c2)c1
IC50 (H9c2): > 79 µM (inactive)

COc1cc(-c2cc(NC(C)=O)c3ncc(-c4ccc(C(C)=O)cc4)n3c2)cc(OC)c1OC
IC50 (H9c2): > 79 µM (inactive)

O=C(NCN1CCN(c2ccccc2)CC1)c1cnccn1
AC50 [8]: 4.03 µM (active)

O=C(N/N=C\c1cccc(Cl)c1)c1ccc(Cn2cccn2)o1
AC50 [8]: 0.641 µM (active)

C/C(CC(=O)Nc1cc(C)ccn1)=N\NC(=O)c1cccc(C)c1O
EC50 [18]: > 160 µM (inactive)
AC50 [7]: 49.5 µM (active)
EC50 [19]: > 38 µM (not active)

O=C(CCN1CCN(c2ccccc2)CC1)N/N=C/c1ccccc1O
EC50 (cells [11]): > 350 µM (not active)
EC50 (cells [12]): 91.8 µM (active)

C/C(=N\NC(=O)c1ccncc1)c1ccc(N(C)C)cc1
AC50 [8]: 5.01 µM (active)

c1ccc(Nc2nc(-c3ccccn3)cs2)cc1
IC50 (cells [4]): 0.19 µM (active)
CC50 [5]: > 20 µM (active)
